From US20240376126A1, “PRMT5 INHIBITOR AND THE USE THEREOF” (CYTOSINLAB THERAPEUTICS CO., LTD., priority 2022, published 2024)
Where two headings read alike, the source gives them in different places.

Key:
[1] = tested on: HCT116-MTAP-KO (MTAP null) cells; experiment: Proliferation inhibition of HCT116 MTAP-KO cells in vitro (CellTiter Glo, 6 days); assay type: cell-based; details: read-out: Cell proliferation inhibition rate HCT116-MTAP null IC50 (nm)
Text: (§1) Biological Test Example 2 Proliferation Inhibition of HCT116 and HCT116 MTAP-KO Cells In Vitro
(§2) HCT116 cell line was purchased from the Chinese Academy of Sciences Cell Bank, and the MTAP gene was knocked out by CRISPR/Cas9 technology to obtain HCT116-MTAP-KO cell line.
(§3) McCoy's 5A medium (Gibco, catalog No. 16600082), fetal bovine serum (Gibco, catalog No. 10099141C), penicillin-streptomycin double antibody (Gibco, catalog No. 15140122), pancreatic enzyme (Gibco, catalog No. 25200056), CellTiter Glo assay kit (Promega, catalog No. G7572), 384-well transparent flat-bottomed black walled cell culture plate (Corning, catalog No. 3764), ultra micro sampler (Tecan, catalog No. D300e), Multimode reader (Biotek, catalog No. SynergyHTX)
(§4) • 1. Cell culture: HCT116 and HCT116-MTAP-KO cells were cultured in McCoy'5A medium+10% fetal bovine serum+1% penicillin-streptomycin double antibody; to ensure that they were always in the logarithmic growth phase and the cell viability greater than 95%. • 2. Compound concentration gradient preparation: The compound to be tested was added to a 384-well plate using an ultra micro sampler, starting from 30 μM (HCT116 cells) or 3 μM (HCT116-MTAP-KO cells), and diluted with DMSO at 3 times for a total of 9 concentrations and set up three duplicate wells. • 3. Treatment of cells with compounds: Trypsin-digested HCT116 or HCT116-MTAP-KO cell suspension was added to the 384-well plates spotted with the compounds to be tested at 40 μL per well, i.e., 100 cells per well, and the final concentration of DMSO was 0.4%. The cell culture plate was incubated at 37° C. in a 5% CO2 incubator for 6 days. • 4. Detection: 20 μL of CellTiter Glo reagent was added to each well of the cell culture plate and incubated at room temperature for 30 minutes. A multimode reader was used to detect the luminescence signal at […]. • 5. Data analysis:
(§5) The data was fitted with GraphPad Prism 8.0 software using a four parameter inhibitor-reaction model to obtain the […] (half inhibitory concentration) of the test compounds.
(§6) The first column represents cell proliferation inhibition rate HCT116 MTAP WT IC50 (nm), and the second column represents cell proliferation inhibition rate HCT116-MTAP null IC50 (nm): […]

[2] = tested on: HCT116 MTAP WT cells; experiment: Proliferation inhibition of HCT116 cells in vitro (CellTiter Glo, 6 days); assay type: cell-based; details: read-out: Cell proliferation inhibition rate HCT116 MTAP WT IC50 (nm)
Text: as §1, §2, §3, §4, §5, §6

Row | Structure (SMILES) | IC50 ([1]; HCT116-MTAP null, 144 h) | IC50 ([2]; Homo sapiens, HCT-116, 144 h) | IC50 [1] | IC50 [2] | IC50 ([1]; 144 h)
1 | Cc1nn(C)cc1N(Cc1nc2ccc(C(F)(F)F)cn2c1F)C(=O)c1ccc2nc(N)c3c(c2c1)COC3 [Example 93] | < 100 nM | 1000 to 10000 nM |  |  | 
2 | Nc1nc2cc(F)c(C(=O)N(Cc3cn4cc(C(F)(F)F)ccc4n3)C3CCOC3)cc2c2c1COC2 (stereo not drawn) [Example 94] | 100 to 1000 nM | 1000 to 10000 nM |  |  | 
3 | CCn1cc(N(Cc2cn3cc(C(F)(F)F)ccc3n2)C(=O)c2ccc3nc(N)c4c(c3c2)COC4)c(C)n1 [Example 95] | < 100 nM | 1000 to 10000 nM |  |  | 
4 | Cc1cc(N(Cc2cn3cc(C(F)(F)F)ccc3n2)C(=O)c2ccc3nc(N)c4c(c3c2)COC4)n(C)n1 [Example 98] | < 100 nM | 1000 to 10000 nM |  |  | 
5 | Cc1ncccc1N(Cc1cn2cc(C(F)(F)F)ccc2n1)C(=O)c1ccc2nc(N)c3c(c2c1)COC3C (stereo not drawn) [Example 100] | < 100 nM | 1000 to 10000 nM |  |  | 
6 | Cc1nn(C)cc1N(Cc1cn2cc(C(F)(F)F)ccc2n1)C(=O)c1ccc2nc(N)c3c(cnn3C)c2c1 [Example 105] | < 100 nM | 1000 to 10000 nM |  |  | 
7 | Cc1nn(C)cc1N(Cc1cn2cc(C(F)(F)F)ccc2n1)C(=O)c1ccc2nc(N)c3c(c2c1)OCC3 [Example 109] | < 100 nM | 1000 to 10000 nM |  |  | 
8 | Cn1nccc1N(Cc1cn2cc(C(F)(F)F)ccc2n1)C(=O)c1cc2c(cc1F)nc(N)c1cnn(C)c12 [Example 111] |  |  | < 100 nM | < 100 nM | 
9 | Cn1nccc1N(Cc1cn2cc(C(F)(F)F)ccc2n1)C(=O)c1ccc2nc(N)c3c(c2c1)OCC3 [Example 112] | < 100 nM | 100 to 1000 nM |  |  | 
10 | Cn1cc(N(Cc2cn3cc(C(F)(F)F)ccc3n2)C(=O)c2ccc3nc(N)c4c(c3c2)OCC4)cn1 [Example 113] | 100 to 1000 nM | 1000 to 10000 nM |  |  | 
11 | Cn1ncc(F)c1N(Cc1cn2cc(C(F)(F)F)ccc2n1)C(=O)c1ccc2nc(N)c3cnn(C)c3c2c1 [Example 115] | < 100 nM | 100 to 1000 nM |  |  | 
12 | CCN(C(=O)c1ccc2nc(N)c3c(cnn3C)c2c1)C(C)c1cc2ccccn2n1 (stereo not drawn) [Example 117] | 100 to 1000 nM | 1000 to 10000 nM |  |  | 
13 | CCN(Cc1cc2ccccn2n1)C(=O)c1ccc2nc(N)c3c(cnn3C)c2c1 [Example 118] | 100 to 1000 nM | 1000 to 10000 nM |  |  | 
14 | CCN(C(=O)c1ccc2nc(N)c3c(c2c1)COC3)C(C)c1cc2ccccn2n1 (stereo not drawn) [Example 119, 4-Amino-N-ethyl-N-(1-(pyrazolo[1,5-a]pyridin-2-yl)ethyl)-1,3-dihydrofurano[3,4-c]quinolin-8-carboxamide] | < 100 nM | 1000 to 10000 nM |  |  | 
15 | Cc1cc2cc(C(=O)N(Cc3cc4ccccn4n3)C(C)c3ncccn3)ccc2nc1N (stereo not drawn) [Example 120] | < 100 nM | 1000 to 10000 nM |  |  | 
16 | CCN(Cc1cc2ccccn2n1)C(=O)c1ccc2nc(N)c3c(c2c1)COC3C (stereo not drawn) [Example 121] | 100 to 1000 nM | 1000 to 10000 nM |  |  | 
17 | C[C@H]1COC[C@@H](c2cc3ccccn3n2)N1C(=O)c1cc2c(cc1F)nc(N)c1cnn(C)c12 [Example 123] | < 100 nM | 100 to 1000 nM |  |  | 
18 | C[C@H]1COC[C@@H](c2cc3ccccn3n2)N1C(=O)c1cc2c3c(c(N)nc2cc1F)COC3 [Example 124] | < 100 nM | 1000 to 10000 nM |  |  | 
19 | Cc1nn(C)cc1N(Cc1cc2ccc(C(F)(F)F)cn2n1)C(=O)c1ccc2nc(N)c3c(c2c1)COC3 [Example 126] | < 100 nM | 1000 to 10000 nM |  |  | 
20 | CC(c1ncccn1)N(Cc1nc2ccccc2[nH]1)C(=O)c1ccc2nc(N)c3c(c2c1)CCC3 (stereo not drawn) [Example 128] | 100 to 1000 nM | 100 to 1000 nM |  |  | 
21 | COCC(C1CC1)N(Cc1nc2ccccc2[nH]1)C(=O)c1ccc2nc(N)c3c(c2c1)CCC3 (stereo not drawn) [Example 129] | < 100 nM | 1000 to 10000 nM |  |  | 
22 | CC(C)CN(Cc1nc2cc(S(F)(F)(F)(F)F)ccc2[nH]1)C(=O)c1cc2c(cc1F)nc(N)c1cnn(C)c12 [Example 133] | < 100 nM | 100 to 1000 nM |  |  | 
23 | CCN(Cc1nc2ccc(C(F)(F)F)cc2[nH]1)C(=O)c1ccc2nc(N)c3c(c2c1)COC3C (stereo not drawn) [Example 134] | < 100 nM | 1000 to 10000 nM |  |  | 
24 | CCN(Cc1nc2ccccc2[nH]1)C(=O)c1ccc2nc(N)c3c(c2c1)COC3C (stereo not drawn) [Example 135] | 100 to 1000 nM | 1000 to 10000 nM |  |  | 
25 | CCN(Cc1nc2cc(C(F)(F)F)ccc2[nH]1)C(=O)c1cc2c(cc1F)nc(N)c1cnc(C)n12 [Example 140] | 100 to 1000 nM | 1000 to 10000 nM |  |  | 
26 | COCC(C1CC1)N(Cc1nc2ccccc2s1)C(=O)c1ccc2nc(N)c(C)cc2c1 (stereo not drawn) [Example 146] |  | 1000 to 10000 nM |  |  | 100 to 1000 nM

Second part, led by results:

Row | IC50 ([1]; HCT116-MTAP null, 144 h) | IC50 ([2]; Homo sapiens, HCT-116, 144 h) | IC50 [1] | IC50 [2] | Structure (SMILES) | IC50 ([1]; 144 h)
27 | < 100 nM | 1000 to 10000 nM |  |  | Cc1nn(C)cc1N(Cc1nc2ccccn2c1F)C(=O)c1ccc2nc(N)c3c(c2c1)COC3 [Example 96] | 
28 | < 100 nM | 1000 to 10000 nM |  |  | CCc1nn(C)cc1N(Cc1cn2cc(C(F)(F)F)ccc2n1)C(=O)c1ccc2nc(N)c3c(c2c1)COC3 [Example 97] | 
29 | < 100 nM | 1000 to 10000 nM |  |  | Cc1ncccc1N(Cc1cn2cc(C(F)(F)F)ccc2n1)C(=O)c1ccc2nc(N)c3c(c2c1)COC3 [Example 99] | 
30 | < 100 nM | 1000 to 10000 nM |  |  | CCn1cc(N(Cc2nc3ccc(C(F)(F)F)cn3c2F)C(=O)c2ccc3nc(N)c4c(c3c2)COC4)c(C)n1 [Example 101] | 
31 | 100 to 1000 nM | 1000 to 10000 nM |  |  | Cc1cc2cc(C(=O)N(Cc3cn4cc(C(F)(F)F)ccc4n3)c3cn(C)nc3C)ccc2nc1N [Example 103] | 
32 |  |  | < 100 nM | 100 to 1000 nM | Cc1nn(C)cc1N(Cc1cn2cc(C(F)(F)F)ccc2n1)C(=O)c1cc2c(cc1F)nc(N)c1cnn(C)c12 [Example 104] | 
33 | < 100 nM | 1000 to 10000 nM |  |  | Cn1nccc1N(Cc1cn2cc(C(F)(F)F)ccc2n1)C(=O)c1ccc2nc(N)c3c(c2c1)COC3 [Example 107] | 
34 | < 100 nM | 1000 to 10000 nM |  |  | Cc1cc(NC(=O)C(=O)N(Cc2cn3cc(C(F)(F)F)ccc3n2)c2cn(C)nc2C)cnc1N [Example 108] | 
35 | < 100 nM | 1000 to 10000 nM |  |  | CC(c1ncccn1)N(Cc1cc2ccccn2n1)C(=O)c1ccc2nc(N)c3c(c2c1)CCC3 (stereo not drawn) [Example 116] | 
36 | < 100 nM | 1000 to 10000 nM |  |  | Cc1cc2cc(C(=O)N(Cc3cc4ccccn4n3)C(C)c3cccc(F)n3)ccc2nc1N (stereo not drawn) [Example 122] | 
37 | < 100 nM | 1000 to 10000 nM |  |  | CC(C)N(Cc1nc2ccccc2[nH]1)C(=O)c1ccc2cc(N)c3c(c2c1)CCC3 [Example 130] | 
38 | 100 to 1000 nM | 1000 to 10000 nM |  |  | CC(C)CN(Cc1nc2ccc(C(F)(F)F)cc2[nH]1)C(=O)c1ccc2nc(N)c3c(c2c1)COC3 [Example 131] | 
39 | 100 to 1000 nM | 1000 to 10000 nM |  |  | CC(C)CN(Cc1nc2ccccc2[nH]1)C(=O)c1ccc2nc(N)c3c(c2c1)COC3C (stereo not drawn) [Example 136] | 
40 | < 100 nM | 1000 to 10000 nM |  |  | Cc1ncc2c(N)nc3cc(F)c(C(=O)N(Cc4nc5ccc(S(F)(F)(F)(F)F)cc5[nH]4)CC(C)C)cc3n12 [Example 139] | 
41 |  |  | 100 to 1000 nM | 1000 to 10000 nM | Cc1ncc2c(N)nc3cc(F)c(C(=O)N(Cc4nc5ccc(C(F)(F)F)cc5[nH]4)c4ccnn4C)cc3n12 [Example 142] | 
42 | 100 to 1000 nM | 1000 to 10000 nM |  |  | COCC(C1CC1)N(Cc1nc2cc(C(F)(F)F)ccc2s1)C(=O)c1ccc2nc(N)c(C)cc2c1 (stereo not drawn) [Example 150] | 
